What all share (test): inhibition of tumour cell growth, NCI panel, 48 h
Assay [1] concerns SK-OV-3 ovarian.
Assay [2] deals with SN12C renal.
Assay [3] has as its system CAKI-1 renal.
The subject of assay [4] is 786-0 renal.
In assay [5] the test system is NCI-H522 lung.
In assay [6] the test system is HOP-92 NSCLC.
Assay [7] deals with HT29 colon.
In assay [8] the test system is SR leukemia.
Assay [9] has as its system M14 melanoma.
In assay [10] the test system is K-562 leukemia.

Our source for the TGI and GI50 values is PubChem BioAssay (NCI).

Structures are written as SMILES.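 Exposure lasted 48 hours, with cells grown in 96-well plates and compounds tested at five concentrations. GI50 is the concentration that inhibits growth by half. At the TGI there is no net growth.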

As to `COc1c(-c2cc(C)c(Cl)c(=O)[nH]2)c(O)c(OC)c2occc12`, the TGI in assay [1], in assay [2], in [3], in assay [4], in assay [5] and in assay [6] was more than 100 µM throughout. For the same compound, the TGI in [7], in assay [8], in assay [9] and in assay [10] was more than 100 µM in each case.

On to `Cn1ccnc1CCc1ccc(F)cc1F`, for which the TGI in assay [1], in assay [2], in [4], in assay [5], in assay [7] and in assay [8] was more than 100 µM each time. Moreover, the TGI in assay [9] and in assay [10] was more than 100 µM throughout.

For the compound `COc1c2occc2c(OC)c2c(=O)c(S(=O)(=O)NC(=O)Nc3ccc(Cl)cc3)coc12`, the TGI in [1], in [2], in assay [3], in assay [4], in assay [5] and in assay [6] was more than 10 µM in each case. Besides, the TGI in [7], in assay [8], in assay [9] and in [10] was more than 10 µM in each case.

With `COC(=O)c1c(OC(C)=O)ccc2c1c1c(OC(C)=O)c3ccccc3c(OC(C)=O)c1n2Cc1cc(OC)cc(OC)c1`, the TGI in assay [1] was 57.8 µM; in [2], more than 100 µM; in assay [3], more than 100 µM; in [4] it was more than 100 µM; in assay [5], 9.2 µM; in assay [6], 5.35 µM. For the same compound, the TGI in assay [7], in assay [8], in assay [9] and in assay [10] was more than 100 µM each time.

As to `O=C(CCc1cccc(O)c1)NCCc1cccc(O)c1`, the TGI in [1], in [2], in assay [3], in assay [4], in assay [5] and in [6] was more than 100 µM in each case. The TGI in assay [7], in assay [8], in assay [9] and in assay [10] was more than 100 µM each time.

In the case of `Brc1ccc2c(-c3nc(-c4c[nH]c5ccccc45)cs3)c[nH]c2c1`, the TGI in assay [1] is more than 100 µM; in [2], more than 100 µM; in assay [3], more than 100 µM; in assay [4], 81.1 µM; in [5], more than 100 µM; in [6], more than 100 µM. Further, the TGI in assay [7] was more than 100 µM; in [8] it was more than 82.3 µM; in [9], more than 100 µM; in assay [10] it was more than 100 µM.

`O=C1NN=C(c2ccc(Cl)cc2)CC1C1C(=O)N(c2ccccc2)N=C1c1ccccc1` (centres undefined): the TGI in assay [1] was more than 100 µM; in [2] it was more than 100 µM; in [4] it was 63.2 µM; in [5] it was 65.2 µM; in [7], more than 100 µM; in assay [8], more than 100 µM. In addition, the TGI in assay [9] and in assay [10] was more than 100 µM throughout.

Turning to `O=C1COC(c2ccccc2O)=NN1CCCN1CCCC1`, the TGI in assay [1], in assay [2], in assay [3], in assay [4], in assay [5] and in assay [6] was more than 100 µM each time. Besides, the TGI in [7], in assay [8] and in assay [9] was more than 100 µM in each case.

As to `COc1ccc(/C=N\N2CC(=O)N3C4C=CC(CC4)N3C2=O)cc1` (centres undefined), the TGI in [1], in [2], in [3], in [4], in assay [6] and in [7] was more than 100 µM each time. The TGI in [8], in assay [9] and in assay [10] was more than 100 µM each time.

Take `Cc1c(-c2ccccc2)c(C#N)c2nnn(-c3ccccc3)c(=O)n12`: the TGI in [1], in [2], in assay [3], in assay [4], in assay [5] and in assay [6] was more than 100 µM each time. The TGI in assay [7], in [8], in assay [9] and in assay [10] was more than 100 µM in each case.

Turning to `COC12C=C/C(=C(/C(=O)OCc3ccncn3)C(=O)CCCCCCCCC3(OC)C=C/C(=C(/C(=O)OCc4ccncn4)C(=O)CCCCCCCC1)O3)O2`, the GI50 in [1] is 0.409 µM; in [2], 0.297 µM; in [3] it was 0.349 µM; in assay [5] it was 0.207 µM; in assay [7], 0.266 µM; in assay [8], 0.296 µM. Further, the GI50 in [9] is 0.286 µM. Besides, the TGI in assay [1] was 3.75 µM; in [2], 1.12 µM; in assay [3], 2.21 µM; in assay [5], 0.545 µM; in assay [7], 0.689 µM; in assay [8], more than 100 µM. Besides, in assay [9], the TGI stood at 3.23 µM.

`O=C(O)Cc1ccc(Oc2nc3ccccc3nc2-c2cccs2)cc1`: the TGI in [1], in assay [2], in assay [3], in assay [4], in assay [5] and in [6] was more than 100 µM each time. In addition, the TGI in assay [7], in assay [8], in assay [9] and in [10] was more than 100 µM each time.

For `COc1cc(Oc2nc3ccccc3nc2C(=O)O)cc(OC)c1OC`, the TGI in assay [1], in assay [3], in assay [4], in [5], in assay [6] and in assay [7] was more than 100 µM in each case. Further, the TGI in assay [8], in [9] and in assay [10] was more than 100 µM each time.

With `[O-][n+]1onc2c3nn(-c4ccccc4)nc3ccc21`, the TGI in assay [1], in [2], in [3], in assay [4], in assay [5] and in assay [6] was more than 100 µM throughout. In addition, the TGI was more than 100 µM in assay [7], more than 75.1 µM in assay [8], more than 100 µM in [9] and more than 100 µM in assay [10].

Regarding `Cc1cc(NS(=O)(=O)c2ccc(NC(=O)c3ccc4nc5ccccc5c(Nc5ccc(S(=O)(=O)N=C(N)N)cc5)c4c3)cc2)no1`, the TGI in assay [1] is 41.6 µM; in assay [2] it was 34.4 µM; in assay [3], 33.6 µM; in assay [4], 30.6 µM; in [5], 34.8 µM; in assay [6], 67.6 µM. The TGI in [7] came to 38.2 µM; in assay [8], 46.7 µM; in [9] it was 34.6 µM; in assay [10], 27.7 µM.

Turning to `CSC1=Nc2ccccc2-c2nc(-c3ccccc3)cc(-c3ccccc3)c2C1`, the TGI in assay [1] was 30.6 µM; in assay [2] it was more than 100 µM; in assay [3], 30 µM; in assay [4], 26 µM; in assay [5], 40.1 µM; in assay [7], more than 100 µM. Further, the figures for the TGI in assay [8], in assay [9] and in [10] were more than 100 µM, 37.1 µM and more than 100 µM, respectively.

Consider `CC(C)CC(=O)NC(Nc1ccc(S(=O)(=O)Nc2ncccn2)cc1)(C(F)(F)F)C(F)(F)F`, for which the TGI in assay [1], in [2], in assay [3], in assay [4], in assay [5] and in assay [6] was more than 100 µM throughout. For the same compound, the TGI in assay [7], in assay [8], in assay [9] and in assay [10] was more than 100 µM throughout.

Take `CCN(CC)CCCCCCCCNc1c2ccc(Cl)cc2nc2ccc(OC)cc12`: the GI50 is 1.64 µM in [2]; 2.37 µM in assay [3]; 1.8 µM in assay [5]; 1.39 µM in assay [6]; 0.597 µM in assay [7]; 0.289 µM in assay [8]. For the same compound, the GI50 in assay [9] is 1.84 µM; in assay [10] it was 0.376 µM. Further, the TGI is 3.73 µM in assay [2]; 6.67 µM in [3]; 3.81 µM in assay [5]; 3.31 µM in [6]; 2.25 µM in [7]; 0.73 µM in assay [8]. The results for the TGI in assay [9] and in [10] were 3.34 µM and 2.23 µM, respectively.

`CN(C(=O)C12C3C4(C(=O)O)C1(C(=O)N(C)C(C)(C)C)C1C2(C(=O)O)C3(C(=O)N(C)C(C)(C)C)C14C(=O)N(C)C(C)(C)C)C(C)(C)C` (centres undefined): the TGI in assay [2], in assay [3], in assay [4], in assay [5], in [6] and in assay [7] was more than 100 µM in each case. Besides, the TGI in assay [8], in [9] and in assay [10] was more than 100 µM throughout.

Take `Cc1ccccc1N=C(N)NC#N`: the TGI in [1], in [2], in assay [3], in assay [4], in [6] and in [7] was more than 100 µM each time. The TGI in assay [8], in assay [9] and in [10] was more than 100 µM each time.

On to `O=S(=O)(c1ccccc1)n1c(C(O)c2ccncc2)cc2ccccc21` (centres undefined), for which the TGI in assay [1], in [2], in assay [3], in assay [4], in assay [6] and in assay [7] was more than 100 µM throughout. Further, the TGI in [8], in assay [9] and in [10] was more than 100 µM throughout.

For the compound `CC1CN=C(Nc2cccc(C(F)(F)F)c2)S1` (centres undefined), the TGI in assay [1], in assay [5], in [7], in assay [8], in assay [9] and in [10] was more than 100 µM throughout.

Turning to `CC(=O)Nc1ccc(S(=O)(=O)Nc2nnc(S(N)(=O)=O)s2)cc1`, the TGI in assay [1], in assay [3], in assay [4], in assay [5], in assay [6] and in assay [7] was more than 100 µM in each case. Moreover, the TGI in assay [8] and in assay [9] was more than 100 µM in each case.

For the compound `O=c1c2ccccc2oc2c1ccc1ncccc12`, the TGI in assay [1] was 34.4 µM; in assay [2], more than 100 µM; in [3], 34.5 µM; in assay [4] it was 48.9 µM; in [5], 59.1 µM; in assay [6], 59.3 µM. The TGI in assay [7], in assay [8] and in [10] was more than 100 µM each time.

`Cc1cc(O)c(C(C)C)cc1NC(=O)Nc1cccc2ccccc12`: the TGI came out at 40.5 µM in [2]; 30.7 µM in assay [3]; 34.6 µM in assay [4]; 54.1 µM in [5]; 40.8 µM in [6]; 36.1 µM in assay [7]. In addition, the TGI in [8] is more than 100 µM; in assay [9], 40 µM; in assay [10], more than 100 µM.

Consider `CO/C(=N\N=C\c1ccc(Cl)cc1)c1ccncc1`, for which the TGI in [1], in [2], in assay [3], in [5], in assay [6] and in assay [7] was more than 100 µM in each case. For the same compound, the TGI in assay [8], in assay [9] and in [10] was more than 100 µM throughout.

For the compound `Cc1cc2c(cc1-c1cc3c(cc1C)C(C(C)C)=C(O)C(=O)/C3=C\Nc1nc(-c3ccccc3)cs1)/C(=C/Nc1nc(-c3ccccc3)cs1)C(=O)C(O)=C2C(C)C`, the TGI is 95.2 µM in assay [1]; 48.4 µM in [2]; more than 100 µM in assay [3]; more than 100 µM in assay [4]; 55.7 µM in assay [6]; 50.2 µM in [7]. The values for the TGI in [8], in assay [9] and in assay [10] were more than 100 µM, 30.1 µM and more than 100 µM, respectively.
